Literature values as cited in patent publication US20120238571A1, “INDAZOLE DERIVATIVES AS PI 3-KINASE” (Glaxo Group Limited, priority 2009, published 2012).
Like-named read-outs stand apart in the source and are kept apart here.

Assays:
CK2 protein kinase = CK2 protein kinase (Homo sapiens, UniProt P68400)
Sequence of CK2 protein kinase (P68400 whole entry): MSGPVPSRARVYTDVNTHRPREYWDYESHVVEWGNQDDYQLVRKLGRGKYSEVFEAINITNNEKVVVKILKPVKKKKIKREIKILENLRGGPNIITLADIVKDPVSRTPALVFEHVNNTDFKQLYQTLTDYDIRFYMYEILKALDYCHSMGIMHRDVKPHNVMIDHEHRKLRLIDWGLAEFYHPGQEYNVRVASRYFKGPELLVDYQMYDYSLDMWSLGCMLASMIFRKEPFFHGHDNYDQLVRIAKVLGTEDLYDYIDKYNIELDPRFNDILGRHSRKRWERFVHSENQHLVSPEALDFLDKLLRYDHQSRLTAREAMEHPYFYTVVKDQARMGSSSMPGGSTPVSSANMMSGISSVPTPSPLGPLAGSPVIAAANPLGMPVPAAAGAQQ

Compound | IC50 (Class I PI3-kinases; each of the Class I PI3-kinases, Fruman et al. 1998, read-out: IC50 against each of these PI3-kinases) | IC50 (CK2 protein kinase) | IC50 (Class I PI3-kinases; each of the four Class I PI3-kinases, read-out: IC50 against each of the various Class I PI3-kinases)
O=c1cc(N2CCOCC2)oc2c(-c3ccccc3)cccc12 [LY294002] | 15 to 20 µM | 5 to 10 µM | 
COC[C@H]1OC(=O)c2coc3c2[C@@]1(C)C1=C(C3=O)[C@@H]2CCC(=O)[C@@]2(C)C[C@H]1OC(C)=O [wortmannin] |  |  | 0.001 to 0.01 µM
